The values that follow come from patent publication US8426408B2, “Pyrimidine inhibitors of kinases” (AbbVie Inc., priority 2009, dated 2013).

The Ki is the equilibrium dissociation constant of an inhibitor or competing ligand from its target. Read a high Ki as a looser hold on the target. As usually defined, the IC50 is the point on the concentration scale where inhibition reaches its midpoint.

SMILES strings stand for the structures.

Experiment [1] has as its target T1, Aurora B (Homo sapiens, UniProt Q96GD4).
T1 construct: Active Aurora B enzyme (recombinant residues 1-344)
The experiment can be described thus: Aurora B enzyme inhibition (time-resolved fluorescence, histone H3 peptide). Type of experiment: biochemical. Conditions: 1 mM ATP. The procedure, abridged: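 Recombinant Aurora B (residues 1-344) with GST-INCENP phosphorylated biotinylated histone H3 (1-21) peptide at 1 mM ATP in HEPES pH 7.4 with MgCl2, orthovanadate and Triton X-100 for 1 h. After EDTA stop, the phosphopeptide was detected by TR-FRET (Eu-cryptate anti-phospho-H3 / SA-APC, 665/615 nm ratio). IC50 from an exponential fit.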

In experiment [2] the test system is NCI-H1299 cells. As to the kind of experiment: Induction of polyploidy in H1299. Format: cell-based, Human. As to conditions: NCI-H1299, 48 hours; for EC15: Homo sapiens, read-out: EC15 (concentration of inhibitor necessary to induce polyploidy in 15% of cells). The gist of the method: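 NCI-H1299 cells in RPMI 1640/10% FCS were treated with inhibitor concentrations in duplicate for 48 h at 37 C, then formalin-fixed and Hoechst-stained. Nuclear area was measured by high-content imaging, with polyploid (≥4N) defined as >750 μ^2. EC15 was derived by least-squares fit of log dose-response.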

Experiment [3] has as its target KDR (Homo sapiens, UniProt P35968). The experiment can be described thus: KDR cellular assay (KDR receptor phosphorylation ELISA). Type of experiment: cell-based. Also on record: expressed in transfected cells; host or cells: 3T3 (embryonic mouse) cells. Conditions: KDR transfected 3T3 (embryonic mouse) cells, VEGF stimulated; read-out: IC50 inhibition of KDR phosphorylation. The gist of the method: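 KDR-transfected mouse 3T3 cells treated 20 min at 37° C with half-log compound dilutions, then stimulated 10 min with VEGF (100 ng/ml solution). Lysates captured on anti-KDR plates; phosphorylation by biotin antibody/streptavidin-HRP ELISA at 450 nm. IC50 by non-linear regression.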
In general terms: An ELISA detects its analyte on a solid surface through an enzyme-linked reagent.

T1 sequence (Q96GD4 whole entry, the tested form may be a part): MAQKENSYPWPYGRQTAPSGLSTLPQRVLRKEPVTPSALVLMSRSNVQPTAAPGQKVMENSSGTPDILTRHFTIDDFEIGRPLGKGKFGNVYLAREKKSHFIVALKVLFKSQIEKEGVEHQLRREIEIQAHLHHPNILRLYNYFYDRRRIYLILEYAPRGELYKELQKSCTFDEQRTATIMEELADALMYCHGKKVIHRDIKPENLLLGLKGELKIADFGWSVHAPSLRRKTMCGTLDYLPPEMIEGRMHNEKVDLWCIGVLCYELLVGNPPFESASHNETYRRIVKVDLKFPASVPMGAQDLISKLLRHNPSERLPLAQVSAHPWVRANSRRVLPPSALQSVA
T1 sequence (Q9NQS7 826-918 partner limits assumed): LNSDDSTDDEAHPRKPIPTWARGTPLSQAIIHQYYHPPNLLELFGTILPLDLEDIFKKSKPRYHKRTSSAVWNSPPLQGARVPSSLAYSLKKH
Chain of KDR (P35968 20-1356): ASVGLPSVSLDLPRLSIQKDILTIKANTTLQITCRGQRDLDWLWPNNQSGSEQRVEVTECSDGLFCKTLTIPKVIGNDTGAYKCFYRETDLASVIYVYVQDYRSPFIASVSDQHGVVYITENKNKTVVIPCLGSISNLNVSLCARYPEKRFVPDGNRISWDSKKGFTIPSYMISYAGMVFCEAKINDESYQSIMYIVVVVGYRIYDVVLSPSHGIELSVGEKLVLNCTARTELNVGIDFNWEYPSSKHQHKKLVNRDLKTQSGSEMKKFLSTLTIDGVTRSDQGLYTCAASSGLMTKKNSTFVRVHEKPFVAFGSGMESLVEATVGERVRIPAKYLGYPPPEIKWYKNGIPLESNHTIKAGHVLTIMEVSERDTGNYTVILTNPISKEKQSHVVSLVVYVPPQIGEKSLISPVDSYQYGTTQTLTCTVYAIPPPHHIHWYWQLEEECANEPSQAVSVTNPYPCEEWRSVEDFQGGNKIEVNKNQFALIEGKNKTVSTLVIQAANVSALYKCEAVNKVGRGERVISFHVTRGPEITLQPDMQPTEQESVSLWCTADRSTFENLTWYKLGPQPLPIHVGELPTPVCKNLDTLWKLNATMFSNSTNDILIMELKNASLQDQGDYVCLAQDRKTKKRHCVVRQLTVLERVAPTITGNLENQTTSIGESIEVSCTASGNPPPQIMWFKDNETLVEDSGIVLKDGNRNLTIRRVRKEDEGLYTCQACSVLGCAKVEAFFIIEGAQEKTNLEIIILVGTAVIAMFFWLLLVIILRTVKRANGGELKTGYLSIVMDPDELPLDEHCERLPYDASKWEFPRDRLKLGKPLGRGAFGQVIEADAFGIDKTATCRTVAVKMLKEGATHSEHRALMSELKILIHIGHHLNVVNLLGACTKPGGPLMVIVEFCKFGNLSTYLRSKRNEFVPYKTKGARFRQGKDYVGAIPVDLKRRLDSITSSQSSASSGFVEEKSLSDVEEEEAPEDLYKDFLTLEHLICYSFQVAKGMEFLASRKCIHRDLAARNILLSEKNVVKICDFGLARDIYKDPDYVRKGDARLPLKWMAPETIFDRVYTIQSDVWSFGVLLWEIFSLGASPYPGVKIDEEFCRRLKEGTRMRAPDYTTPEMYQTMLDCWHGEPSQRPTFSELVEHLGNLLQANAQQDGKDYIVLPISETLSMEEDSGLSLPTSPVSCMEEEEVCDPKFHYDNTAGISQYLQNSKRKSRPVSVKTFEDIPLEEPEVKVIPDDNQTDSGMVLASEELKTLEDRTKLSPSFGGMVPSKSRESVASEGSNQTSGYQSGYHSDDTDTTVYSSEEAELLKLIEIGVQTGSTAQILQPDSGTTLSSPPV

`Cn1cc(Nc2ncc(Cl)c(N[C@@H]3[C@H](C(N)=O)[C@H]4CC[C@@H]3O4)n2)cn1.Cn1cc(Nc2ncc(Cl)c(N[C@H]3[C@@H](C(N)=O)[C@@H]4CC[C@H]3O4)n2)cn1` (mixture of isomers) [Example 141, (1S,2R,3S,4R)-3-({5-chloro-2-[(1-methyl-1H-pyrazol-4-yl)amino]pyrimidin-4-yl}amino)-7-oxabicyclo[2.2.1]heptane-2-carboxamide and (1R,2S,3R,4S)-3-({5-chloro-2-[(1-methyl-1H-pyrazol-4-yl)amino]pyrimidin-4-yl}amino)-7-oxabicyclo[2.2.1]heptane-2-carboxamide]: the inhibitory constant (Ki) in experiment [1] was less than 100 nM. In experiment [2], the “EC15 (concentration of inhibitor necessary to induce polyploidy in 15% of cells)” value is “B (“B” represents an EC15 of between 0.1 μM and 1 μM)”. In addition, the IC50 in experiment [3] was in the range of 100 to 1000 nM.
In experiment [1], `Cn1cc(Nc2ncc(Cl)c(N[C@@H]3CC[C@@H]3C(N)=O)n2)cn1.Cn1cc(Nc2ncc(Cl)c(N[C@H]3CC[C@H]3C(N)=O)n2)cn1` (mixture of isomers) [Example 151, (1S,2R)-2-({5-chloro-2-[(1-methyl-1H-pyrazol-4-yl)amino]pyrimidin-4-yl}amino)cyclobutanecarboxamide and (1R,2S)-2-({5-chloro-2-[(1-methyl-1H-pyrazol-4-yl)amino]pyrimidin-4-yl}amino)cyclobutanecarboxamide] gave a Ki of less than 100 nM. For the same compound, the “EC15 (concentration of inhibitor necessary to induce polyploidy in 15% of cells)” value in experiment [2] was “A (“A” represents an EC15 of less than 0.1 μM)”. Further, the IC50 in experiment [3] fell in the range of 100 to 1000 nM.
With `CCn1cc(Nc2ncc(Cl)c(N[C@H]3[C@@H](C(N)=O)[C@@H]4C=C[C@H]3C4)n2)cn1` (racemic) [Example 30, (1S,2S,3R,4R)-3-({5-chloro-2-[(1-ethyl-1H-pyrazol-4-yl)amino]pyrimidin-4-yl}amino)bicyclo[2.2.1]hept-5-ene-2-carboxamide and (1R,2R,3S,4S)-3-({5-chloro-2-[(1-ethyl-1H-pyrazol-4-yl)amino]pyrimidin-4-yl}amino)bicyclo[2.2.1]hept-5-ene-2-carboxamide], in experiment [1], the inhibition constant Ki was less than 100 nM. In experiment [2], the “EC15 (concentration of inhibitor necessary to induce polyploidy in 15% of cells)” value is on record as “A (“A” represents an EC15 of less than 0.1 μM)”. Besides, the IC50 in experiment [3] is less than 100 nM.
For the compound `CCn1cc(Nc2ncc(Cl)c(NC3C4CCC(O4)C3C(N)=O)n2)cn1` (racemic) [Example 142, (1S,2R,3S,4R)-3-({5-chloro-2-[(1-ethyl-1H-pyrazol-4-yl)amino]pyrimidin-4-yl}amino)-7-oxabicyclo[2.2.1]heptane-2-carboxamide and (1R,2S,3R,4S)-3-({5-chloro-2-[(1-ethyl-1H-pyrazol-4-yl)amino]pyrimidin-4-yl}amino)-7-oxabicyclo[2.2.1]heptane-2-carboxamide], the Ki in experiment [1] is less than 100 nM. Also, in experiment [2], the “EC15 (concentration of inhibitor necessary to induce polyploidy in 15% of cells)” value was “B (“B” represents an EC15 of between 0.1 μM and 1 μM)”. Further, in experiment [3], the IC50 lay in the range of 100 to 1000 nM.
Regarding `CC(C)NC(=O)C1CCCC1Nc1nc(Nc2cnn(C3CCNCC3)c2)ncc1Cl` (racemic) [Example 163, (1S,2R)-2-[(5-chloro-2-{[1-(piperidin-4-yl)-1H-pyrazol-4-yl]amino}pyrimidin-4-yl)amino]-N-isopropylcyclopentanecarboxamide and (1R,2S)-2-[(5-chloro-2-{[1-(piperidin-4-yl)-1H-pyrazol-4-yl]amino}pyrimidin-4-yl)amino]-N-isopropylcyclopentanecarboxamide], the Ki in experiment [1] was less than 100 nM. Further, the “EC15 (concentration of inhibitor necessary to induce polyploidy in 15% of cells)” value in experiment [2] was “A (“A” represents an EC15 of less than 0.1 μM)”. In addition, the IC50 in experiment [3] is 100 to 1000 nM.
In experiment [1], `CNC(=O)Cn1cc(Nc2ncc(Cl)c(N[C@@H]3[C@H]4CC[C@H](C4)[C@@H]3C(N)=O)n2)cn1` [Example 88, (1R,2S,3R,4S)-3-{[5-chloro-2-({1-[2-(methylamino)-2-oxoethyl]-1H-pyrazol-4-yl}amino)pyrimidin-4-yl]amino}bicyclo[2.2.1]heptane-2-carboxamide] displayed a Ki of less than 100 nM. Further, in experiment [2], the EC15 lay in the range of 100 to 1000 nM. The IC50 in experiment [3] fell in the range of 100 to 1000 nM.
`CN(C)CC(=O)N1CCC(n2cc(Nc3ncc(Cl)c(N[C@H]4[C@@H](C(N)=O)[C@@H]5C=C[C@H]4C5)n3)cn2)CC1` [Example 89, (1S,2S,3R,4R)-3-{[5-chloro-2-({1-[1-(N,N-dimethylglycyl)piperidin-4-yl]-1H-pyrazol-4-yl}amino)pyrimidin-4-yl]amino}bicyclo[2.2.1]hept-5-ene-2-carboxamide] came in with a Ki in experiment [1] of less than 100 nM. Also, in experiment [2], the EC15 is less than 100 nM. In addition, the half-maximal inhibitory concentration (IC50) in experiment [3] is less than 100 nM.
In experiment [1], `CN1CCN(CCn2cc(Nc3ncc(Cl)c(N[C@@H]4[C@H]5CC[C@H](C5)[C@@H]4C(N)=O)n3)cn2)CC1` [Example 90, (1R,2S,3R,4S)-3-{[5-chloro-2-({1-[2-(4-methylpiperazin-1-yl)ethyl]-1H-pyrazol-4-yl}amino)pyrimidin-4-yl]amino}bicyclo[2.2.1]heptane-2-carboxamide] showed a Ki of less than 100 nM. Besides, the EC15 in experiment [2] is 100 to 1000 nM. In experiment [3], the IC50 was less than 100 nM.
With `CN1CCN(CCn2cc(Nc3ncc(Cl)c(N[C@H]4[C@@H](C(N)=O)[C@@H]5C=C[C@H]4C5)n3)cn2)CC1` [Example 91, (1S,2S,3R,4R)-3-{[5-chloro-2-({1-[2-(4-methylpiperazin-1-yl)ethyl]-1H-pyrazol-4-yl}amino)pyrimidin-4-yl]amino}bicyclo[2.2.1]hept-5-ene-2-carboxamide], the Ki in experiment [1] was less than 100 nM. In addition, the EC15 in experiment [2] was less than 100 nM. In addition, the IC50 in experiment [3] was less than 100 nM.
As to `CC(=O)N1CCC(n2cc(Nc3ncc(Cl)c(N[C@H]4[C@@H](C(N)=O)[C@@H]5C=C[C@H]4C5)n3)cn2)CC1` [Example 92, (1S,2S,3R,4R)-3-[(2-{[1-(1-acetylpiperidin-4-yl)-1H-pyrazol-4-yl]amino}-5-chloropyrimidin-4-yl)amino]bicyclo[2.2.1]hept-5-ene-2-carboxamide], the inhibitory constant (Ki) in experiment [1] is less than 100 nM. Besides, in experiment [2], the EC15 is less than 100 nM. The IC50 in experiment [3] fell in the range of 100 to 1000 nM.
As for `NC(=O)[C@H]1[C@@H]2CC[C@@H](C2)[C@H]1Nc1nc(Nc2cnn(CCO)c2)ncc1Cl` [Example 93, (1R,2S,3R,4S)-3-[(5-chloro-2-{[1-(2-hydroxyethyl)-1H-pyrazol-4-yl]amino}pyrimidin-4-yl)amino]bicyclo[2.2.1]heptane-2-carboxamide], the Ki in experiment [1] was less than 100 nM. Also, in experiment [2], the EC15 is less than 100 nM. The IC50 in experiment [3] was in the range of 100 to 1000 nM.
Take `CN1CCC(Cn2cc(Nc3ncc(Cl)c(N[C@H]4[C@@H](C(N)=O)[C@@H]5C=C[C@H]4C5)n3)cn2)CC1` [Example 97, (1S,2S,3R,4R)-3-{[5-chloro-2-({1-[(1-methylpiperidin-4-yl)methyl]-1H-pyrazol-4-yl}amino)pyrimidin-4-yl]amino}bicyclo[2.2.1]hept-5-ene-2-carboxamide]: in experiment [1], the Ki is less than 100 nM. Moreover, in experiment [2], the EC15 lay in the range of 100 to 1000 nM. The IC50 in experiment [3] is less than 100 nM.
`CC(C)n1cc(Nc2ncc(Cl)c(N[C@H]3[C@@H](C(N)=O)[C@@H]4C=C[C@H]3C4)n2)cn1` [Example 98, (1S,2S,3R,4R)-3-({5-chloro-2-[(1-isopropyl-1H-pyrazol-4-yl)amino]pyrimidin-4-yl}amino)bicyclo[2.2.1]hept-5-ene-2-carboxamide] displayed a Ki in experiment [1] of less than 100 nM. For the same compound, the EC15 in experiment [2] was less than 100 nM. Also, the IC50 in experiment [3] is less than 100 nM.
For `CC(C)CCn1cc(Nc2ncc(Cl)c(N[C@H]3[C@@H](C(N)=O)[C@@H]4C=C[C@H]3C4)n2)cn1` [Example 99, (1S,2S,3R,4R)-3-[(5-chloro-2-[1-(3-methylbutyl)-1H-pyrazol-4-yl]aminopyrimidin-4-yl)amino]bicyclo[2.2.1]hept-5-ene-2-carboxamide], in experiment [1], the Ki is less than 100 nM. Also, in experiment [2], the EC15 is less than 100 nM. Moreover, in experiment [3], the IC50 was less than 100 nM.
For the compound `COCCOCCn1cc(Nc2ncc(Cl)c(N[C@H]3[C@@H](C(N)=O)[C@@H]4C=C[C@H]3C4)n2)cn1` [Example 100, (1S,2S,3R,4R)-3-{[5-chloro-2-({1-[2-(2-methoxyethoxy)ethyl]-1H-pyrazol-4-yl}amino)pyrimidin-4-yl]amino}bicyclo[2.2.1]hept-5-ene-2-carboxamide], the Ki in experiment [1] was less than 100 nM. The EC15 in experiment [2] is less than 100 nM. Besides, the IC50 in experiment [3] was less than 100 nM.
For the compound `Cn1cc(Nc2ncc(Cl)c(Nc3ccccc3C3(O)CCC3)n2)cn1` [Example 101, 1-[2-({5-chloro-2-[(1-methyl-1H-pyrazol-4-yl)amino]pyrimidin-4-yl}amino)phenyl]cyclobutanol], the Ki in experiment [1] is less than 100 nM. Besides, in experiment [2], the EC15 is less than 100 nM. The half-maximal inhibitory concentration (IC50) in experiment [3] is 100 to 1000 nM.
Consider `NC(=O)[C@@H]1[C@H](Nc2nc(Nc3cnn(C[C@H]4CCCN4)c3)ncc2Cl)[C@H]2C=C[C@@H]1C2` [Example 102, (1S,2S,3R,4R)-3-{[5-chloro-2-({1-[(2R)-pyrrolidin-2-ylmethyl]-1H-pyrazol-4-yl}amino)pyrimidin-4-yl]amino}bicyclo[2.2.1]hept-5-ene-2-carboxamide], for which the inhibitory constant (Ki) in experiment [1] is less than 100 nM. Also, the EC15 in experiment [2] was less than 100 nM. Besides, the IC50 in experiment [3] was less than 100 nM.
